From PubChem BioAssay (NCI)
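All cell lines were grown in 96-well plates and treated with compound for 48 hours. TGI: total growth inhibition.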

Legend:
Assay in all cases: inhibition of tumour cell growth, NCI panel, 48 h
EKVX NSCLC = tested on: EKVX NSCLC
T-47D breast = tested on: T-47D breast
SR leukemia = tested on: SR leukemia
COLO 205 colon = tested on: COLO 205 colon
786-0 renal = tested on: 786-0 renal
SNB-75 CNS = tested on: SNB-75 CNS
SK-OV-3 ovarian = tested on: SK-OV-3 ovarian
K-562 leukemia = tested on: K-562 leukemia
PC-3 prostate = tested on: PC-3 prostate
NCI-H460 lung = tested on: NCI-H460 lung
NCI-H226 lung = tested on: NCI-H226 lung
HOP-62 NSCLC = tested on: HOP-62 NSCLC

Row | SMILES | TGI (EKVX NSCLC) | TGI (T-47D breast) | TGI (SR leukemia) | TGI (COLO 205 colon) | TGI (786-0 renal) | TGI (SNB-75 CNS) | TGI (SK-OV-3 ovarian) | TGI (K-562 leukemia) | TGI (PC-3 prostate) | TGI (NCI-H460 lung) | TGI (NCI-H226 lung) | TGI (HOP-62 NSCLC)
1 | CN(CCO)CC(=O)CC(O)(C(F)(F)F)C(F)(F)F | > 100 µM | > 100 µM | > 100 µM | > 100 µM | > 100 µM | 51.7 µM | 74.3 µM | > 100 µM | 82.8 µM | > 100 µM | > 100 µM | –
2 | CCCCCCN(C(=O)Oc1ccccc1)C(C#N)c1ccccc1 (configuration not stated) | > 100 µM | > 100 µM | > 100 µM | > 100 µM | > 100 µM | > 100 µM | > 100 µM | > 100 µM | > 100 µM | – | > 100 µM | > 100 µM
3 | Cc1c(-c2ccccc2)c(-c2ccc(OCCN(C)C)cc2)n2ccccc12 | 31.8 µM | 22.9 µM | 6.49 µM | 3.08 µM | 20.9 µM | 22.4 µM | 30.2 µM | 4.14 µM | 20.3 µM | 7.3 µM | 30.9 µM | 28.6 µM
4 | CC1=NC(=Cc2ccc(Cl)cc2)C(=O)N1n1c(-c2ccccc2)nc2ccccc2c1=O | > 100 µM | 74.3 µM | > 100 µM | > 100 µM | > 100 µM | 99.6 µM | > 100 µM | > 100 µM | > 100 µM | 60.7 µM | > 100 µM | > 100 µM
5 | Cc1sc2ncnc(NCCc3ccccc3)c2c1C | 13.9 µM | 56.6 µM | 26.6 µM | 24.4 µM | 45.7 µM | 53.5 µM | 73.4 µM | 63.1 µM | 40.3 µM | 23.9 µM | 42.3 µM | 33.8 µM
6 | COc1ccc(CSCc2cc(OC)c(OC)c(OC)c2)cc1 | > 31.6 µM | > 100 µM | > 100 µM | > 100 µM | > 100 µM | > 100 µM | > 100 µM | > 100 µM | > 31.6 µM | > 100 µM | > 100 µM | > 100 µM
7 | CC1CCCc2c(-c3ccc(Cl)cc3)nc(N)c(C#N)c21 (configuration not stated) | 65.8 µM | 35.6 µM | 40.5 µM | 48.3 µM | > 100 µM | 50.6 µM | 83.6 µM | 93.5 µM | 82 µM | 81.4 µM | 66.2 µM | 63 µM
8 | CC(=O)NNC=N/C(C#N)=C(\N)C#N | > 100 µM | > 100 µM | > 100 µM | > 100 µM | > 100 µM | > 100 µM | > 100 µM | > 100 µM | > 100 µM | > 100 µM | > 100 µM | > 100 µM
9 | CN(C)c1ccc(C2CC(=O)CC(c3ccc(N(C)C)cc3)C23C(=O)NC(=O)NC3=O)cc1 (configuration not stated) | > 25 µM | > 25 µM | > 25 µM | > 25 µM | > 25 µM | > 25 µM | – | > 25 µM | > 25 µM | > 25 µM | > 25 µM | > 25 µM
10 | CN1CC=C(OP(=O)(NCc2ccccc2)N(CCCl)CCCl)CC1 (configuration not stated) | > 100 µM | > 100 µM | > 100 µM | > 100 µM | > 100 µM | > 100 µM | > 100 µM | > 100 µM | > 100 µM | > 100 µM | > 100 µM | > 100 µM
11 | COc1ccc(/C=C/C(=O)NCC(NC(=O)/C=C/c2ccc(OC)c(OC)c2)C(=O)O)cc1OC (configuration not stated) | > 100 µM | > 100 µM | > 100 µM | > 100 µM | > 100 µM | > 100 µM | > 100 µM | > 100 µM | > 100 µM | > 100 µM | > 100 µM | > 100 µM
12 | CCOC(=O)CCc1c(C(=O)OCC)[nH]c(/C=C2/NC(=O)C(C)=C2CC)c1C | – | 9.59 µM | 20.4 µM | 33.2 µM | 46.2 µM | 42.7 µM | > 100 µM | 12.9 µM | > 100 µM | > 100 µM | 48.2 µM | 29.8 µM
13 | COc1cc(C2c3cccc4cccc(c34)C3CCC(=O)N32)cc(O)c1O (configuration not stated) | > 50 µM | > 50 µM | 29.5 µM | > 50 µM | > 50 µM | > 50 µM | > 50 µM | 40.3 µM | > 50 µM | > 50 µM | > 50 µM | > 50 µM
14 | O=C(CNC(=O)OCc1ccccc1)NCCCCC(NC(=O)OCc1ccccc1)C(=O)O (configuration not stated) | > 100 µM | > 100 µM | > 100 µM | > 100 µM | > 100 µM | > 100 µM | > 100 µM | > 100 µM | > 100 µM | > 100 µM | > 100 µM | > 100 µM
15 | COc1ccc2oc(=N)c(C(N)=S)cc2c1 | 95.7 µM | 99.3 µM | > 100 µM | > 100 µM | > 100 µM | 74.8 µM | > 100 µM | > 100 µM | 93.7 µM | 39.7 µM | 44.3 µM | > 100 µM
16 | O=C1C(NCCc2cc(Br)c(O)c(Br)c2)=CC(=O)c2ncccc21 | 30.7 µM | 52 µM | 6.46 µM | 19.2 µM | 34.4 µM | 5.34 µM | 68.1 µM | 13.8 µM | > 100 µM | 5.41 µM | 8.52 µM | 9.99 µM
17 | C[N+](C)(C)CC1Cc2ccccc2C1=O (configuration not stated) | > 10 µM | 6.49 µM | 7.11 µM | > 6.59 µM | > 10 µM | > 10 µM | > 10 µM | 5.07 µM | > 10 µM | > 10 µM | > 10 µM | > 10 µM
18 | N[C@@H]1C[C@H](N)c2c(Cl)sc(Cl)c21 | > 100 µM | > 100 µM | > 100 µM | > 100 µM | > 100 µM | > 100 µM | – | > 100 µM | > 100 µM | > 100 µM | > 100 µM | > 100 µM
19 | COC(=O)n1c(=O)nc2c3c(ncn21)Oc1c(c(-c2ccccc2)nn1-c1ccccc1)C3c1ccc(Cl)cc1 (configuration not stated) | – | 3.23 µM | 4.31 µM | 2.76 µM | 2.81 µM | 7.69 µM | 12.1 µM | 3.37 µM | 2.94 µM | 3.09 µM | 3.42 µM | 3.09 µM
